Molecules are shown by their SMILES. In brackets after ≈: the same amount, converted by molar mass.

The source of these data is patent US8921414B2, “Spiroketals” (EcoBiotics Ltd, priority 2005, dated 2014).

For one series, the system named is Haemonchus contortus. Briefly: NemaTOX (Ne) anthelmintic larval development bioassay. The note with it: for Ne LD99: weight of chemical in last well with activity, real value may be lower. Here is the method:
NemaTOX (alternatively referred to herein as Ne) is an anthelmintic bioassay, applicable to all parasitic nematodes with free-living life cycle stages, and can be used as a screen to detect activity and define the species spectrum of compounds against parasitic nematodes and examine the impact of pre-existing resistance to other anthelmintic classes on potency. Haemonchus contortus was utilised for this assay.
The effect on larval development is determined in this assay by the method described by Gill et al. (1995) Int. J. Parasitol. 25: 463-470. Briefly, in this assay nematode eggs were applied to the surface of an agar matrix containing the test sample and allowed to develop through to the L3, infective stage (6 days). At this time the stage of larval development reached and any unusual features (deformity, paralysis, toxicity) were noted by microscopic examination.

A further series concerns Drosophila melanogaster. Briefly: DipteraTOX insecticidal bioassay. The arrangement: key: A value of A in DipG, Dip P or Dip H represents very active; a value of P represents active. The note with it: 250 μg per mL in agar. The method, then:
DipteraTOX. DipteraTOX is referred to herein as DipG, DipP and DipH. DipG represents no grazing of larva. DipP represents no pupae formation and Dip H represents no hatching of flies. A value of A in DipG, Dip P or Dip H represents very active and a value of P represents active. In DipteraTox the fly eggs are applied to the surface of an agar matrix containing 250 μg per mL of the test chemical and allowed to hatch, develop and pupate for a period up of two weeks. The assay was monitored at two discrete times to determine the extent of grazing of the agar matrix at Week 1 and the presence of adult flies at Week 2. […] Drosophila melanogaster was utilised for this assay.

Another series concerns Giardia spp. Briefly: TriTOX (Gi) anti-protozoan bioassay. The series is classed as cell-based. The note with it: for Gi LD99: weight of chemical in last well with activity, real value may be lower. The source says: TriTOX (alternatively referred to herein as Gi) is a microtitre plate based chromogenic bioassay for the screening of anti-protozoan activity of pathogenic, anaerobic/microaerophilic protozoans for example Giardia spp. and Trichomonas spp. The bioassays are run under anaerobic conditions and features species specific chromogens. […] Aliquots of each concentration(s) are applied to the wells of 96-well microtitre plates and diluted with media. […] The lowest concentration at which the compound is active is noted as the minimum inhibitory concentration (MIC). Additionally, microscopic inspection is carried out to identify any patterns of morphological change that may be consistent with a type of toxicity and therefore mode of action. Giardia spp. was utilized for this assay.

For series [1], the system named is normal human fibroblasts (NFF). Briefly: Additional in vitro activity: cytotoxic activity, NFF. The note with it: concentration with activity. The class given is cell-based.
The next series concerns leukemia K562. Briefly: Additional in vitro activity: antitumor activity, K562. The series is classed as cell-based, human. The note with it: concentration with activity.
Another series has as its system melanoma MM96L. Briefly: Additional in vitro activity: antitumor activity, MM96L. The note with it: concentration with activity. The series is classed as cell-based, human.
A further series relates to melanoma MM418c5. Briefly: Additional in vitro activity: antitumor activity, MM418c5. The series is classed as cell-based, human. The note with it: concentration with activity.
A further series concerns breast MCF-7. Briefly: Additional in vitro activity: antitumor activity, MCF-7. The class given is cell-based, human. The note with it: concentration with activity.
The test system of a further series is ovarian C180-13S. Briefly: Additional in vitro activity: antitumor activity, C180-13S. The series is classed as cell-based, human. The note with it: concentration with activity.
In series [2] the test system is Neonatal foreskin fibroblasts (NFF). Briefly: Cell growth inhibition (Table 22), NFF. The series is classed as cell-based. The note with it: Homo sapiens, read-out: IC50 (drug dose which inhibits cell growth by 50%) NFF. The method, then:
(§1) The isolated compounds were tested against a number of human and non-human cancer cell lines. The human tumor cell lines were: MCF-7, MDA-MB-231 and T47D, breast cancer; DU145 and PC3, prostate cancer; CI80-13S, ovarian cancer; MM96L, D04, SkMel5, MM418c5 melanoma; HT29, colon cancer; K562 and HL60, leukemia. Mouse cell lines were the B16 mouse melanoma and LK2 UV-induced squamous cell carcinoma (SCC). Neonatal foreskin fibroblasts (NFF) were used as normal control cells. Cells were cultured at 37° C. in 5% carbon dioxide/air, in RPMI 1640 medium containing 10% fetal calf serum.

The next series deals with MCF-7 breast cancer. Briefly: Cell growth inhibition (Table 22), MCF7. The class given is cell-based. The note with it: Homo sapiens, read-out: IC50 (drug dose which inhibits cell growth by 50%) MCF7. Here is the method:
as §1

The next series has as its system DU145 prostate cancer. Briefly: Cell growth inhibition (Table 22), DU145. The series is classed as cell-based. The note with it: Homo sapiens, DU-145; read-out: IC50 (drug dose which inhibits cell growth by 50%) DU145. Here is the method: as §1
The subject of a further series is K562 leukemia. Briefly: Cell growth inhibition (Table 22), K562. The series is classed as cell-based. The note with it: Homo sapiens, read-out: IC50 (drug dose which inhibits cell growth by 50%) K562. The method, then: as §1
Another series deals with CI80-13S ovarian cancer. Briefly: Cell growth inhibition (Table 22), C180-13S. The note with it: Homo sapiens, read-out: IC50 (drug dose which inhibits cell growth by 50%) C180-13S. The series is classed as cell-based. Here is the method:
as §1

Series [3] concerns EBV-infected peripheral blood mononuclear cells (PBMCs). Briefly: EBV transformation of donor PBMCs (anti-inflammatory screening). The note with it: 2 μg/mL, 28 days, visual and 3H-T cpm. The class given is cell-based, human. The method, then:
Three main assays were performed; transformation, regression and mixed lymphocyte reactions (MLRs). Reference is made to Moss et al., (D J, Rickinson A B, Pope J H: Long-term T-cell-mediated immunity to Epstein-Barr virus in man. III. Activation of cytotoxic T cells in virus-infected leukocyte cultures. Int J Cancer 1979, 23:618-625). Complete regression of virus-induced transformation in cultures of seropositive donor leukocytes
Both regression and MLR quantitative experimental results were obtained visually and by the addition of [methyl-^3H]thymidine (3H-T). 3H-T is a nucleoside analogue and is incorporated into the DNA of proliferating cells. If cells are proliferating, the counts/minute (cpm) is high; if cells are dead, the cpm is low.
EBV seronegative and seropositive donors' peripheral blood mononuclear cells (PBMCs) were infected with EBV. […]
The cells were then incubated for 28 days when results were determined visually and by the addition of 3H-T to obtain quantitative data.
The individual transformation summaries were determined by visual data and 3H-T cpm data from EBV seronegative_donors' peripheral blood mononuclear cells (PBMC). […] The 3H-T cpm cut-off values were determined for each individual assay by this control value, plus and minus a five (5)-fold difference. […]

In general, IC50 refers to the midpoint of a concentration-inhibition curve. In the case of `CC/C=C/CCCCCCCCCCCC(O)CC1CC(O)CC2(CC3OC(=O)C=CC3O2)O1` (centres unmarked) [EBI-24], the entries for the “Ne LD99” value with Haemonchus contortus (listed as EB116.LA3.31-36/40) and in the series with Haemonchus contortus (listed as EB116.LA3.60-47/49) were 100 µg/mL and 50 µg/mL, respectively. The “DipH (no hatching of flies)” value with Drosophila melanogaster is recorded as “P/P”. In the series with Drosophila melanogaster, the “DipP (no pupae formation)” value was “P/P”. Also, the “Gi LD99” value is 100 µg/mL with Giardia spp. (listed as EB116.LA3.31-36/40) and 50 µg/mL in the series with Giardia spp. (listed as EB116.LA3.60-47/49). For the same compound, the “cytotoxic activity against normal human fibroblasts (NFF) at” value in series [1] was determined as 10 µg/mL. In addition, the “antitumor activity against leukemia K562 at” value in the series on leukemia K562 was found to be 10 µg/mL. In addition, the “antitumor activity against melanoma MM96L at” value with melanoma MM96L came out at 3 µg/mL. Moreover, the “antitumor activity against melanoma MM418c5 at” value with melanoma MM418c5 turned out to be 10 µg/mL. The “antitumor activity against breast MCF-7 at” value with breast MCF-7 was 10 µg/mL. Besides, the “antitumor activity against ovarian C180-13S at” value in the series with ovarian C180-13S was 3 µg/mL. Also, the 50% inhibitory concentration (IC50) in series [2] turned out to be 0.8 µg/mL (≈ 1.67 µM); with MCF-7 breast cancer, 0.2 µg/mL (≈ 0.418 µM); in the series with DU145 prostate cancer, 0.7 µg/mL (≈ 1.46 µM); with K562 leukemia it was 0.6 µg/mL (≈ 1.25 µM); with CI80-13S ovarian cancer, 0.75 µg/mL (≈ 1.57 µM). Further, in [3], the inhibition of transformation entry was “strong inhibition”.
Take `CCCCCCCCCCCCCC(O)CC1CC(O)CC2(CC3OC(=O)C=CC3O2)O1` (centres unmarked) [EBI-23]: in the series with Haemonchus contortus, the “Ne Titre” value was found to be 1. The “Ne LD99” value with Haemonchus contortus (listed as EB77.LA4.92-100) came to 63 µg/mL; in the series with Haemonchus contortus (listed as EB116.LA3.31-27/32), 100 µg/mL. Moreover, the “DipP (no pupae formation)” value in the series on Drosophila melanogaster is recorded as “P”. Moreover, the “Gi Titre” value in the series with Giardia spp. is given as 4. Moreover, the “Gi LD99” value in the series on Giardia spp. (listed as EB77.LA4.92-100) was determined as 16 µg/mL; with Giardia spp. (listed as EB116.LA3.31-27/32), 50 µg/mL; with Giardia spp. (listed as EB116.LA3.60-40/42), 50 µg/mL. The “cytotoxic activity against normal human fibroblasts (NFF) at” value in series [1] was determined as 30 µg/mL. Besides, the “antitumor activity against leukemia K562 at” value in the series with leukemia K562 is 3 µg/mL. Further, the “antitumor activity against melanoma MM96L at” value with melanoma MM96L is 1 µg/mL. For the same compound, the “antitumor activity against melanoma MM418c5 at” value with melanoma MM418c5 was found to be 1 µg/mL. Further, in the series on breast MCF-7, the “antitumor activity against breast MCF-7 at” value was 1 µg/mL. Moreover, the “antitumor activity against ovarian C180-13S at” value with ovarian C180-13S is 1 µg/mL. Further, the IC50 in [2] was determined as 2 µg/mL (≈ 4.42 µM); with MCF-7 breast cancer it was 0.5 µg/mL (≈ 1.1 µM); in the series with DU145 prostate cancer, 0.7 µg/mL (≈ 1.55 µM); with K562 leukemia, 1.7 µg/mL (≈ 3.76 µM); with CI80-13S ovarian cancer it was 0.2 µg/mL (≈ 0.442 µM). Moreover, the inhibition of transformation result in [3] is listed as “strong inhibition”.
